Assay results taken from ChEMBL document CHEMBL4229491, “Design, synthesis and evaluation of novel N-phenylbutanamide derivatives as KCNQ openers for the treatment of epilepsy” (Bioorg Med Chem Lett, 2018).

What was measured:
[1] = biological target: T1, Potassium voltage-gated channel subfamily KQT member 2 (Homo sapiens, UniProt O43526); experiment: Channel opening activity at KCNQ2 (unknown origin) expressed in CHO cells assessed as change in half activation potential at 10 uM by electrophysiological patch-clamp test; format: cell-based
[2] = biological target: T1, Potassium voltage-gated channel subfamily KQT member 2; experiment: Channel opening activity at KCNQ2 (unknown origin) expressed in CHO cells assessed as conductivity (I/I0 ratio) at 10 uM by electrophysiological patch-clamp test; format: cell-based
Mus musculus [3] = experiment: Anticonvulsant activity in maximal electroshock induced Kunming mouse assessed as epilepsy incidence at 25 mg/kg, ip measured after 30 mins; format: functional
Rattus norvegicus [4] = experiment: Neurotoxicity in Sprague-Dawley rat at 25 mg/kg, ip measured after 30 mins by rotating-rod test; format: toxicity, organism-based; conditions: in vivo, 0.5 h
[5] = biological target: T1, Potassium voltage-gated channel subfamily KQT member 2; experiment: Channel opening activity at KCNQ2 (unknown origin) expressed in CHO cells after 10 mins by atomic absorption spectrophotometry-based Rb+ flow assay; format: cell-based
[6] = biological target: T1, Potassium voltage-gated channel subfamily KQT member 2; experiment: Channel opening activity at KCNQ2 (unknown origin) expressed in CHO cells at 10 uM incubated for 20 mins in dark measured every 2 secs for 10 secs by fluorescence-based thallium influx assay relative to control; format: cell-based
[7] = Drug uptake in Kunming mouse plasma at 1.5 mg/kg, iv measured after 30 mins by LC/MS/MS analysis; format: ADME, organism-based
[8] = Half life in Sprague-Dawley rat at 1 mg/kg, iv by LC/MS/MS analysis; format: ADME, organism-based; conditions: in vivo
[9] = biological target: T1, Potassium voltage-gated channel subfamily KQT member 2; experiment: Potency index, ratio of retigabine EC50 to compound EC50 for channel opening activity at KCNQ2 (unknown origin) expressed in CHO cells by atomic absorption spectrophotometry-based Rb+ flow assay; format: cell-based
[10] = Ratio of drug uptake in Kunming mouse brain to plasma at 1.5 mg/kg, iv measured after 2 hrs by LC/MS/MS analysis; format: ADME, organism-based; conditions: read-out: BPR
[11] = Drug uptake in Kunming mouse plasma at 15 mg/kg, ig measured after 30 mins by LC/MS/MS analysis; format: ADME, organism-based; conditions: po
Mus musculus [12] = experiment: Anticonvulsant activity in maximal electroshock induced Kunming mouse assessed as epilepsy incidence at 3 mg/kg, ip measured after 30 mins; format: functional
Rattus norvegicus [13] = experiment: Neurotoxicity in Sprague-Dawley rat at 0.3 mg/kg, ip measured after 30 mins by rotating-rod test; format: toxicity, organism-based; conditions: in vivo, 0.5 h
[14] = Drug uptake in Kunming mouse plasma at 1.5 mg/kg, iv measured after 2 hrs by LC/MS/MS analysis; format: ADME, organism-based
[15] = Drug uptake in Kunming mouse brain at 15 mg/kg, ig measured after 30 mins by LC/MS/MS analysis; format: ADME, organism-based; conditions: po, read-out: Drug uptake
Mus musculus [16] = experiment: Anticonvulsant activity in maximal electroshock induced Kunming mouse assessed as epilepsy incidence at 0.3 mg/kg, ip measured after 30 mins; format: functional
Rattus norvegicus [17] = experiment: Neurotoxicity in Sprague-Dawley rat at 1 mg/kg, ip measured after 30 mins by rotating-rod test; format: toxicity, organism-based; conditions: in vivo, 0.5 h
Mus musculus [18] = experiment: Anticonvulsant activity in maximal electroshock induced Kunming mouse assessed as epilepsy incidence at 1 mg/kg, ip measured after 30 mins; format: functional
[19] = Drug uptake in Kunming mouse brain at 1.5 mg/kg, iv measured after 2 hrs by LC/MS/MS analysis; format: ADME, organism-based; conditions: read-out: Drug uptake
[20] = Ratio of drug uptake in Kunming mouse brain to plasma at 15 mg/kg, ig measured after 30 mins by LC/MS/MS analysis; format: ADME, organism-based; conditions: po, read-out: BPR
[21] = Apparent volume of distribution in Sprague-Dawley rat at 1 mg/kg, iv by LC/MS/MS analysis; format: ADME, organism-based; conditions: in vivo, read-out: Vz
[22] = Drug uptake in Kunming mouse brain at 1.5 mg/kg, iv measured after 5 mins by LC/MS/MS analysis; format: ADME, organism-based; conditions: read-out: Drug uptake
[23] = MRTlast in Sprague-Dawley rat at 1 mg/kg, iv by LC/MS/MS analysis; format: ADME, organism-based; conditions: in vivo
[24] = Drug uptake in Kunming mouse plasma at 1.5 mg/kg, iv measured after 5 mins by LC/MS/MS analysis; format: ADME, organism-based
[25] = Ratio of drug uptake in Kunming mouse brain to plasma at 15 mg/kg, ig measured after 2 hrs by LC/MS/MS analysis; format: ADME, organism-based; conditions: po, read-out: BPR
[26] = AUClast in Sprague-Dawley rat at 1 mg/kg, iv by LC/MS/MS analysis; format: ADME, organism-based; set-up: dose 1 mg/kg, route intravenous, time 0 - last; conditions: in vivo
[27] = Ratio of drug uptake in Kunming mouse brain to plasma at 1.5 mg/kg, iv measured after 5 mins by LC/MS/MS analysis; format: ADME, organism-based; conditions: read-out: BPR
[28] = Clearance in Sprague-Dawley rat at 1 mg/kg, iv by LC/MS/MS analysis; format: ADME, organism-based; conditions: in vivo
[29] = Tmax in Sprague-Dawley rat at 1 mg/kg, iv by LC/MS/MS analysis; format: ADME, organism-based; conditions: in vivo
[30] = Ratio of drug uptake in Kunming mouse brain to plasma at 15 mg/kg, ig measured after 5 mins by LC/MS/MS analysis; format: ADME, organism-based; conditions: po, read-out: BPR
Mus musculus [31] = experiment: Anticonvulsant activity in maximal electroshock induced Kunming mouse assessed as epilepsy incidence at 5 mg/kg, ip measured after 30 mins; format: functional
[32] = Drug uptake in Kunming mouse plasma at 15 mg/kg, ig measured after 2 hrs by LC/MS/MS analysis; format: ADME, organism-based; conditions: po
Rattus norvegicus [33] = experiment: Neurotoxicity in Sprague-Dawley rat at 3 mg/kg, ip measured after 30 mins by rotating-rod test; format: toxicity, organism-based; conditions: in vivo, 0.5 h
[34] = Drug uptake in Kunming mouse plasma at 15 mg/kg, ig measured after 5 mins by LC/MS/MS analysis; format: ADME, organism-based; conditions: po
[35] = Drug uptake in Kunming mouse brain at 15 mg/kg, ig measured after 2 hrs by LC/MS/MS analysis; format: ADME, organism-based; conditions: po, read-out: Drug uptake
[36] = Drug uptake in Kunming mouse brain at 15 mg/kg, ig measured after 5 mins by LC/MS/MS analysis; format: ADME, organism-based; conditions: po, read-out: Drug uptake
[37] = Ratio of drug uptake in Kunming mouse brain to plasma at 1.5 mg/kg, iv measured after 30 mins by LC/MS/MS analysis; format: ADME, organism-based; conditions: read-out: BPR
Mus musculus [38] = experiment: Anticonvulsant activity in ip dosed maximal electroshock induced Kunming mouse assessed as suppression of hind legs rigidity measured after 30 mins; format: functional, organism-based
Rattus norvegicus [39] = experiment: Neurotoxicity in Sprague-Dawley rat at 5 mg/kg, ip measured after 30 mins by rotating-rod test; format: toxicity, organism-based; conditions: in vivo, 0.5 h
[40] = Cmax in Sprague-Dawley rat at 1 mg/kg, iv by LC/MS/MS analysis; format: ADME, organism-based; set-up: dose 1 mg/kg, route intravenous; conditions: in vivo
[41] = Drug uptake in Kunming mouse brain at 1.5 mg/kg, iv measured after 30 mins by LC/MS/MS analysis; format: ADME, organism-based; conditions: read-out: Drug uptake

T1 sequence (O43526 whole entry): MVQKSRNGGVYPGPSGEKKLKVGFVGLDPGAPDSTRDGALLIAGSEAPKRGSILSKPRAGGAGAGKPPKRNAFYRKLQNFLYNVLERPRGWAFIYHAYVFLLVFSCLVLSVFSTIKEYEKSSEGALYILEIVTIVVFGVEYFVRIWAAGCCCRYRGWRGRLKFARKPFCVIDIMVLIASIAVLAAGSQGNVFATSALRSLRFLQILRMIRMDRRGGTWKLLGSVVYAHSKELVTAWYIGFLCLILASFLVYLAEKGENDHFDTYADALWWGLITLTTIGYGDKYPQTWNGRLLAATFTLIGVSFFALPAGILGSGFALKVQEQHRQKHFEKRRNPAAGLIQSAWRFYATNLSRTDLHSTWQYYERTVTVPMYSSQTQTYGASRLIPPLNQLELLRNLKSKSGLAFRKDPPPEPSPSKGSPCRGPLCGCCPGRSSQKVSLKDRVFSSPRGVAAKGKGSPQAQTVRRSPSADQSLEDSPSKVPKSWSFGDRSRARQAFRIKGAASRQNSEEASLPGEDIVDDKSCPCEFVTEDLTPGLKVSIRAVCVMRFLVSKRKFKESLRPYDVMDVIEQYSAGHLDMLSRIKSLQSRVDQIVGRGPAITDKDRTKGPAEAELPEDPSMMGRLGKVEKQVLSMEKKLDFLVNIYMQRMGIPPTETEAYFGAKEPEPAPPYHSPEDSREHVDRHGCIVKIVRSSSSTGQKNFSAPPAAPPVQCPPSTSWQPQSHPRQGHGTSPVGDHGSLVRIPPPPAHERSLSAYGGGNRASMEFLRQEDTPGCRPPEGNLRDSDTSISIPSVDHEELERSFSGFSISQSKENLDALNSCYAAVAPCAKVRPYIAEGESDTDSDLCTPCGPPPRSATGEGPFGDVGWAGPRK

Structure (SMILES): CCOC(=O)Nc1ccc(NCc2ccc(F)cc2)cc1N [EZOGABINE]
- V1/2 [1]: 40 mV
- Ratio [2]: 2.12
- Activity (Mus musculus [3]): 15%
- Activity (Rattus norvegicus [4]): 0%

Structure (SMILES): Cc1cc(N2CCc3sc(C(F)(F)F)cc3C2)cc(C)c1NC(=O)CC(C)(C)C
- EC50 [5]: 120 nM

Structure (SMILES): Cc1cc(N2CCCCc3cc(F)ccc32)cc(C)c1NC(=O)CC(C)(C)C
- EC50 [5]: 250 nM

Structure (SMILES): Cc1csc2c1CN(c1cc(C)c(NC(=O)CC(C)(C)C)c(C)c1)CC2
- EC50 [5]: 300 nM

Structure (SMILES): Cc1ccc2c(c1)CCCCN2c1cc(C)c(NC(=O)CC(C)(C)C)c(C)c1
- EC50 [5]: 40 nM

Structure (SMILES): Cc1cc(N2CCn3cccc3C2)cc(C)c1NC(=O)CC(C)(C)C
- EC50 [5]: 34 nM
- V1/2 [1]: 46.1 mV
- Activity [6]: 4.87%
- Ratio [2]: 1.65

Structure (SMILES): Cc1cc(N2CCc3sccc3C2)cc(C)c1NC(=O)CC(C)(C)C
- concentration at 0.5 h [7]: 137 ng/mL
- half-life [8]: 329 min
- Ratio EC50 [9]: 17
- Kp at 2 h [10]: 0.16
- concentration at 0.5 h [11]: 243 ng/mL
- Activity (Mus musculus [12]): 20%
- EC50 [5]: 20 nM
- Activity (Rattus norvegicus [13]): 0%
- V1/2 [1]: 66.2 mV
- concentration at 2 h [14]: 7.85 ng/mL
- concentration at 0.5 h [15]: 30 ng/g
- Activity [6]: 84.2%
- Activity (Mus musculus [16]): 70%
- Activity (Rattus norvegicus [17]): 0%
- Activity (Mus musculus [18]): 90%
- concentration at 2 h [19]: 1.27 ng/g
- Kp at 0.5 h [20]: 0.12
- Ratio [2]: 1.63
- Vd [21]: 11.2 L/kg
- concentration at 5 min [22]: 140 ng/g
- MRT last [23]: 2.17 h
- concentration at 5 min [24]: 771 ng/mL
- Kp at 2 h [25]: 0.09
- AUC(0-t) [26]: 687 ng·h/mL
- Kp at 5 min [27]: 0.18
- clearance [28]: 23.6 mL/min/kg
- Tmax [29]: 1.8 min
- Kp at 5 min [30]: 0.12
- Activity (Mus musculus [31]): 20%
- concentration at 2 h [32]: 52.9 ng/mL
- Activity (Rattus norvegicus [33]): 0%
- concentration at 5 min [34]: 201 ng/mL
- concentration at 2 h [35]: 4.96 ng/g
- concentration at 5 min [36]: 25 ng/g
- Kp at 0.5 h [37]: 0.14
- EC50 (Mus musculus [38]): 1.83 mg/kg
- Activity (Rattus norvegicus [39]): 0%
- Cmax [40]: 1060 ng/mL
- concentration at 0.5 h [41]: 19 ng/g

Structure (SMILES): Cc1cc(N2CCc3cc(F)sc3C2)cc(C)c1NC(=O)CC(C)(C)C
- EC50 [5]: 2930 nM

Structure (SMILES): Cc1cc2c(s1)CN(c1cc(C)c(NC(=O)CC(C)(C)C)c(C)c1)CC2
- EC50 [5]: 30 nM

Structure (SMILES): Cc1cc(N2CCc3ccsc3C2)cc(C)c1NC(=O)CC(C)(C)C
- EC50 [5]: 20 nM
- V1/2 [1]: 53.3 mV
- Activity [6]: 64.8%
- Ratio [2]: 0.67

Structure (SMILES): Cc1cc(N2CCCCc3cc(Br)ccc32)cc(C)c1NC(=O)CC(C)(C)C
- EC50 [5]: 1080 nM

Structure (SMILES): Cc1cc(N2CCc3sc(C#N)cc3C2)cc(C)c1NC(=O)CC(C)(C)C
- EC50 [5]: 290 nM

Structure (SMILES): Cc1cc(N2CCCCc3cc(Cl)ccc32)cc(C)c1NC(=O)CC(C)(C)C
- EC50 [5]: 140 nM
